Source: patent US20220243211A1, “PEPTIDE NUCLEIC ACID COMPOSITIONS WITH MODIFIED HOOGSTEEN BINDING SEGMENTS AND METHODS OF USE THEREOF” (Yale University, priority 2019, published 2022)

Experiments:
[1] = Zeta potential and hydrodynamic diameter of formulated NPs by dynamic light scattering; type: physicochemical; details: NPs containing PNA/donor DNA, PBS buffer, n = 3; for Z Av Diameter: dynamic light scattering
Procedure: Blank NPs containing no PNA and a mismatch donor DNA as a control were prepared as a control. The mismatched donor DNA was purposely added into blank NPs because addition of donor DNA helps to produce a similar surface charge on the control NPs as on the test NPs encapsulated with PNA/donor DNA combinations. […] All NP in the diameters were in the range of 200-350 nm, as measured by dynamic light scattering (Table 1), consistent with previous measurements (McNeer, et al., Nat Commun 6, 6952 (2015), Fields, et al., Adv Healthc Mater 4, 361-366 (2015), Fields, et al., J Control Release 164, 41-48 (2012)). PNA/DNA-loaded NPs were cationic (Fields, et al., Adv Healthc Mater 4, 361-366 (2015), Fields, et al., J Control Release 164, 41-48 (2012)) for PBAE/PLGA/MPG NPs (Table 1).

[2] = system: F508del CFTR gene in CFBE cells; assay: Allele-specific PCR for gene modification; type: cell-based, human; details: CFBE cells treated with PNA/donor DNA NPs
Procedure: Genomic DNA was harvested from cells and purified using the Wizard Genomic DNA Purification kit (Promega, Madison Wis.). Equal amounts of genomic DNA from each sample were subjected to allele-specific PCR (ASPCR), with a gene-specific reverse primer, and an allele-specific forward primer. PCR was performed using a Eppendorf master cycler X50. PCR products were separated on a 1% agarose gel and visualized using a gel imager.
AS-PCR conditions are as follows. Platinum Taq polymerase (Invitrogen, Carlsbad Calif.) was used for PCR reactions: 5 uL betaine, 4.25 uL water, 2.5 uL 10× Platinum Taq PCR buffer, 1.25 uL 50 mM MgCl2, 0.5 uL dNTPs, 0.5 uL each primer at 10 uM, 0.5 uL Platinum Taq polymerase, and 10 uL of genomic DNA at 40 ng/uL. PCR cycler conditions for human CFTR were as follows: 95° C. 2 min, 94° C. 30 sec, 69° C. 1 min, 72° C. 1 min, 94° C. 30 sec, 68° C. 1 min, 72° C. 1 min, 94° C. 30 sec, 67° C. 1 min, 72° C. 1 min, 94° C. 30 sec, 66° C. 1 min, 72° C. 1 min, 94° C. 30 sec, 65° C. 1 min, 72° C. 1 min, [94° C. 30 sec, 65° C. 1 min, 72° C. 1 min]×35 cycles, 72° C. 2 min, hold at 4° C. 1.
Gene-specific reverse primer: (reverse complement starting from nt 80162): 5′ […]

[3] = system: CFBE cells at ALI; assay: Ussing chamber assay, short circuit current; type: cell-based, human; details: apical PBAE/PLGA/MPG NPs, 2 mg/dose, 3 doses
Procedure: FIG. 5A is a Schematic of treatment of cells grown at ALI. FIG. 5B is a bar graph showing Ussing Chamber assay results. CFBE cells at ALI were treated apically at 2 mg/dose for 3 doses with 48 hours between each dose **p<0.001; ***p<0.002. FIG. 5C is a dot plot showing digital droplet (ddPCR) quantification of gene editing in genomic DNA isolated from CFBE cells at ALI treated apically at 2 mg/dose for 3 doses with 48 hours between each dose ***p<0.002.
Ussing experiments were performed as previously described (Bruscia, et al., Proc Natl Acad Sci USA 103, 2965-2970 (2006)). An Easy Mount Ussing Chamber System (Physiologic Instruments) was heated to 37° C. Electrode tips were prepared by partial filling with 3% agar in 3M KCl and subsequently backfilling with a 3M KCl. The Ussing chambers are equipped with current and voltage electrodes loaded with these tips. […] The transepithelial voltage and membrane resistance was measured during each pulse. Under these conditions, short circuit current (Isc) was calculated using Ohm's Law at the timepoint wherein the basolateral chamber was filled with a chloride-free solution following 20 minutes of equilibration in Kreb's Bicarbonate Ringers. […]

| Substance | Zeta Potential [1] [mV] | Z Av Diameter [1] [nm] | gene modification by allele-specific PCR [2] | Isc (short circuit current), cAMP stimulated [3] |
| --- | --- | --- | --- | --- |
| H-KKK-TJTJJTTT-OOO-TTTCCTCTATGGGTAAG-KKK-NH2 [hCF PNA] (TNTNNTTTTTTCCTCTATGGGTAAG; listed as DNA, chemistry not fully specified) | 14.2 | 291.7 | had the desired gene modification | minimum Isc |
| H-KKK-TJTJJTTT-OOO-TTTCCTCTATGGGTAAG-KKK-NH2 [γhCF PNA-h] (TNTNNTTTTTTCCTCTATGGGTAAG; listed as DNA, chemistry not fully specified) [tail clamp PNA targeting human CFTR gene with MPγ monomers in Hoogsteen domain] | 13.3 | 293.2 | had the desired gene modification | marked increase |
